In PubChem BioAssay AID651592 (Sanford-Burnham Center for Chemical Genomics, 2012) one finds IC50 data, which are given here for five molecules.

The target of experiment [1] is Interleukin-8 (Homo sapiens) (UniProt P10145). As to the kind of experiment: inhibitors of NFkB activation in CF airway cells, SAR follow-up, KKLEB cells, panel, IL8 HTRF, NFkB-GFP (AID 651592).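 Note: immortalized cystic fibrosis airway epithelial KKLEB cells with an NF-kB GFP reporter.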 The settings on record: PAF/TNFa-induced NFkB-GFP / IL8 HTRF. (In general: In TR-FRET formats the signal depends on donor and acceptor labels being close together.)
Chain of Interleukin-8 (Homo sapiens) (P10145 whole entry, looked up): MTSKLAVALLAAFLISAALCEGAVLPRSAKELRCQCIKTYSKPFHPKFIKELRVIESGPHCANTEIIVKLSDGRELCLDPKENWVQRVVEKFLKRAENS
Test in experiment [2]: as above
The settings on record: PAF/TNFa-induced NFkB-GFP / IL8 HTRF, CF-PAF assay.

Another experiment relates to IL8. The experiment is described as above. The settings on record: PAF/TNFa-induced NFkB-GFP / IL8 HTRF, mean of runs, mean IC50 across panel replicates.
[3] abbreviates: mean of runs, mean IC50 across panel replicates.

As for `O=C(Nc1ccc(N2CCN(C(=O)c3ccccc3F)CC2)cc1)c1cc(Br)cc(Br)c1`, the IC50 in experiment [1] (IL8, PAF-induced, run 1) is more than 66 µM; in experiment [1] (IL8, PAF-induced, run 2) it was more than 66 µM; in experiment [1] (IL8, PAF-induced, run 3), more than 66 µM; in experiment [1] (IL8, PAF-induced, run 4) it was more than 66 µM; in experiment [1] (IL8, PAF-induced, run 5), more than 66 µM; in experiment [1] (IL8, PAF-induced, run 6) it was more than 66 µM. Further, the concentration for half-maximal inhibition (IC50) is more than 66 µM in experiment [1] (IL8, TNFa-induced, run 1); more than 66 µM in experiment [1] (IL8, TNFa-induced, run 2); more than 66 µM in experiment [1] (IL8, TNFa-induced, run 3); more than 66 µM in experiment [1] (IL8, TNFa-induced, run 4); more than 66 µM in experiment [1] (IL8, TNFa-induced, run 5); more than 66 µM in experiment [1] (IL8, TNFa-induced, run 6). The IC50 in experiment [2] (setting [3]), in experiment [2] (run 1), in experiment [2] (run 2), in experiment [2] (run 3), in experiment [2] (run 4) and in experiment [2] (run 5) was more than 66 µM throughout. In addition, the IC50 (in experiment [2] (run 6); with IL8 (PAF-induced); in the experiment on IL8 (TNFa-induced)) was more than 66 µM in each case.
Take `Cc1ccc(CNCc2cc3c(C(C)(C)C)nn(-c4ccccc4)c3[nH]c2=O)cc1`: the IC50 in experiment [1] (IL8, PAF-induced, run 1) was 7.97 µM; in experiment [1] (IL8, PAF-induced, run 2), 12.8 µM; in experiment [1] (IL8, PAF-induced, run 3) it was 14.6 µM; in experiment [1] (IL8, PAF-induced, run 4), 16.6 µM; in experiment [1] (IL8, PAF-induced, run 5), 17 µM; in experiment [1] (IL8, PAF-induced, run 6), 18.6 µM. The IC50 in experiment [1] (IL8, TNFa-induced, run 1) is more than 66 µM; in experiment [1] (IL8, TNFa-induced, run 2) it was more than 66 µM; in experiment [1] (IL8, TNFa-induced, run 3), more than 66 µM; in experiment [1] (IL8, TNFa-induced, run 4), more than 66 µM; in experiment [1] (IL8, TNFa-induced, run 5), more than 66 µM; in experiment [1] (IL8, TNFa-induced, run 6), more than 66 µM. Besides, the IC50 in experiment [2] (setting [3]) is 60 µM; in experiment [2] (run 1), more than 66 µM; in experiment [2] (run 2), more than 66 µM; in experiment [2] (run 3), more than 66 µM; in experiment [2] (run 4), more than 66 µM; in experiment [2] (run 5), more than 66 µM. For the same molecule, the IC50 in experiment [2] (run 6) is 30.1 µM; in the experiment with IL8 (PAF-induced) it was 14.6 µM; in the experiment on IL8 (TNFa-induced), more than 66 µM.
For the molecule `O=C(Nc1ccc(N2CCN(C(=O)c3ccccc3Cl)CC2)cc1)c1ccccn1`, the IC50 is more than 66 µM in experiment [1] (IL8, PAF-induced, run 1); 12.5 µM in experiment [1] (IL8, PAF-induced, run 2); 19.7 µM in experiment [1] (IL8, PAF-induced, run 3); 3.66 µM in experiment [1] (IL8, PAF-induced, run 4); 5.84 µM in experiment [1] (IL8, PAF-induced, run 5); 53.2 µM in experiment [1] (IL8, PAF-induced, run 6). For the same molecule, the IC50 in experiment [1] (IL8, TNFa-induced, run 1) is more than 66 µM; in experiment [1] (IL8, TNFa-induced, run 2) it was more than 66 µM; in experiment [1] (IL8, TNFa-induced, run 3), more than 66 µM; in experiment [1] (IL8, TNFa-induced, run 4), more than 66 µM; in experiment [1] (IL8, TNFa-induced, run 5) it was more than 66 µM; in experiment [1] (IL8, TNFa-induced, run 6) it was more than 66 µM. The IC50 in experiment [2] (setting [3]) is 39.5 µM; in experiment [2] (run 1), 8.15 µM; in experiment [2] (run 2) it was 14.4 µM; in experiment [2] (run 3), 16.5 µM; in experiment [2] (run 4), more than 66 µM; in experiment [2] (run 5), more than 66 µM. Further, the concentration for half-maximal inhibition (IC50) in experiment [2] (run 6) was more than 66 µM; in the experiment on IL8 (PAF-induced), 19 µM; in the experiment on IL8 (TNFa-induced) it was more than 66 µM.
For the molecule `O=C(Nc1ccc(N2CCN(C(=O)c3ccccc3F)CC2)cc1)c1cccnc1`, the IC50 in experiment [1] (IL8, PAF-induced, run 1) was more than 66 µM; in experiment [1] (IL8, PAF-induced, run 2) it was more than 66 µM; in experiment [1] (IL8, PAF-induced, run 3), more than 66 µM; in experiment [1] (IL8, PAF-induced, run 4), more than 66 µM; in experiment [1] (IL8, PAF-induced, run 5), more than 66 µM; in experiment [1] (IL8, PAF-induced, run 6), 37.8 µM. The IC50 is more than 66 µM in experiment [1] (IL8, TNFa-induced, run 1); more than 66 µM in experiment [1] (IL8, TNFa-induced, run 2); more than 66 µM in experiment [1] (IL8, TNFa-induced, run 3); more than 66 µM in experiment [1] (IL8, TNFa-induced, run 4); more than 66 µM in experiment [1] (IL8, TNFa-induced, run 5); more than 66 µM in experiment [1] (IL8, TNFa-induced, run 6). In addition, the 50% inhibitory concentration (IC50) is 29 µM in experiment [2] (setting [3]); 6.4 µM in experiment [2] (run 1); 8.28 µM in experiment [2] (run 2); 8.83 µM in experiment [2] (run 3); more than 66 µM in experiment [2] (run 4); more than 66 µM in experiment [2] (run 5). For the same molecule, the IC50 in experiment [2] (run 6) was 18.3 µM; in the experiment on IL8 (PAF-induced), 61.3 µM; in the experiment on IL8 (TNFa-induced) it was more than 66 µM.
On to `O=C(Nc1ccc(N2CCN(C(=O)c3ccccc3Cl)CC2)cc1)c1cccnc1`, for which the IC50 in experiment [1] (IL8, PAF-induced, run 1) was more than 66 µM; in experiment [1] (IL8, PAF-induced, run 2) it was more than 66 µM; in experiment [1] (IL8, PAF-induced, run 3), more than 66 µM; in experiment [1] (IL8, PAF-induced, run 4), more than 66 µM; in experiment [1] (IL8, PAF-induced, run 5), more than 66 µM; in experiment [1] (IL8, PAF-induced, run 6) it was more than 66 µM. Further, the IC50 in experiment [1] (IL8, TNFa-induced, run 1) is more than 66 µM; in experiment [1] (IL8, TNFa-induced, run 2), more than 66 µM; in experiment [1] (IL8, TNFa-induced, run 3), more than 66 µM; in experiment [1] (IL8, TNFa-induced, run 4), more than 66 µM; in experiment [1] (IL8, TNFa-induced, run 5) it was more than 66 µM; in experiment [1] (IL8, TNFa-induced, run 6) it was more than 66 µM. Besides, the IC50 was 25.3 µM in experiment [2] (setting [3]); 3.68 µM in experiment [2] (run 1); 4.18 µM in experiment [2] (run 2); 4.81 µM in experiment [2] (run 3); more than 66 µM in experiment [2] (run 4); more than 66 µM in experiment [2] (run 5). Further, the half-maximal inhibitory concentration (IC50) in experiment [2] (run 6) is 7.26 µM; in the experiment with IL8 (PAF-induced) it was more than 66 µM; in the experiment with IL8 (TNFa-induced), more than 66 µM.

Broadly, the IC50 is the concentration that gives 50% inhibition.
